Assay results reported in patent US8030341B2, “Dmt-derivative compounds and related compositions and methods of use” (priority 2005, dated 2011).
Where a name gives a salt, the structure may show the parent alone. Read-outs that look alike come from different tables or passages of the source.

Columns and labels:
δ-opioid receptor [1] = target: T1, δ-opioid receptor (Rattus norvegicus, UniProt P33533); assay: opioid receptor binding competition assay, rat brain P2 synaptosomal membranes (δ); settings: Table 3; versus [3H]DPDPE; rat brain synaptosomes; read-out: Ki(δ)
T1 construct: from tissue; host or cells: rat brain P2 synaptosomal membranes (Sprague-Dawley)
Procedure: (§1) Synaptosomes were preincubated to remove endogenous opioids, washed in excess ice-cold buffer containing protease inhibitor and stored in a glycerol-containing buffer with protease inhibitor at −80° C. as described in Lazarus et al., J. Med. Chem. 34:1350-55 (1991). […] After incubation, the radiolabeled membranes were rapidly filtered on Whatman GF/C glass fiber filters presoaked in 0.1% polyethylenimine in order to optimize the signal-to-noise ratio, washed with ice-cold BSA buffer, and dried at 75-80° C. Radioactivity was determined using EcoLume (ICN, Costa Mesa, Calif.). All compounds were analyzed in duplicate using 5-8 peptide dosages and several synaptosomal preparations in independent repetitions to ensure statistical significance. The affinity constants (Ki) were calculated according to Cheng and Prusoff (Cheng et al., Biochem. Pharmacol., 22: 3099-3108 ([…])).

μ-opioid receptor [2] = target: T2, μ-opioid receptor (Rattus norvegicus, UniProt P33535); assay: opioid receptor binding competition assay, rat brain P2 synaptosomal membranes (μ); settings: Table 3
T2 construct: from tissue; host or cells: rat brain P2 synaptosomal membranes (Sprague-Dawley)
Procedure: as §1

δ-opioid receptor [3] = target: T3, δ-opioid receptor (Mus musculus, UniProt P32300); assay: mouse vas deferens (MVD) bioassay; format: cell-based; settings: Table 4
T3 construct: from tissue; host or cells: isolated mouse vas deferens
Text: Bioorg. Med. Chem., 11: 675-678 (2003). The isolated tissues were suspended in organ baths containing balanced salt solutions in a physiological buffer, pH 7.5. […]

μ-opioid receptor [4] = target: T4, μ-opioid receptor (Cavia porcellus, UniProt P97266); assay: guinea pig ileum (GPI) bioassay; format: cell-based; settings: Table 4
Procedure: The myenteric plexus longitudinal muscle preparations (2-3 cm segments) from the small intestine of male Hartley strain guinea pigs (GP1) measured μ-opioid receptor agonism and a single mouse vas deferens (MVD) was used to determine δ-opioid receptor agonism as described in Sasaki et al. Bioorg. […] The isolated tissues were suspended in organ baths containing balanced salt solutions in a physiological buffer, pH 7.5. Agonists were tested for the inhibition of electrically evoked contraction and expressed as IC50 (nM) obtained from the dose-response curves.

[5] = test system: morphine-induced analgesia; assay: inhibition of morphine-induced analgesia after intracerebroventricular administration; format: in vivo; settings: mice
δ-opioid receptor [6] = target: T1, δ-opioid receptor; settings: Table 3; reference rows marked e, f, g (no SE, no n); cited from earlier work
μ-opioid receptor [7] = target: T2, μ-opioid receptor; settings: Table 3, reference rows marked e, f, cited from earlier work; for Ki: g (no SE, no n); for Ki(δ)/Ki(μ): g
δ-opioid receptor [8] = target: T3, δ-opioid receptor; settings: Table 2; reference value marked 6a; cited from earlier work
μ-opioid receptor [9] = target: T4, μ-opioid receptor; settings: Table 2; reference value marked 6a; cited from earlier work

T2 sequence (P33535 whole entry): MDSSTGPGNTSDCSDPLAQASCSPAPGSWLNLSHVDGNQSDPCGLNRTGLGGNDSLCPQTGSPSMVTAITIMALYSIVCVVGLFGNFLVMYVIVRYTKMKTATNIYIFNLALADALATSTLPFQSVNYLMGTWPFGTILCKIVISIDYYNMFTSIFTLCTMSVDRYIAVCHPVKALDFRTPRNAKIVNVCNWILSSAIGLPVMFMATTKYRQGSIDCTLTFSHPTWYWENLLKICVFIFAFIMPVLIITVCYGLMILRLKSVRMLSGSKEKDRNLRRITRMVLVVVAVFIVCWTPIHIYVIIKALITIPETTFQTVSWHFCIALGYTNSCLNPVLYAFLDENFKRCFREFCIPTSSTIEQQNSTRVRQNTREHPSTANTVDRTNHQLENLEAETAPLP
T1 sequence (P33533 whole entry): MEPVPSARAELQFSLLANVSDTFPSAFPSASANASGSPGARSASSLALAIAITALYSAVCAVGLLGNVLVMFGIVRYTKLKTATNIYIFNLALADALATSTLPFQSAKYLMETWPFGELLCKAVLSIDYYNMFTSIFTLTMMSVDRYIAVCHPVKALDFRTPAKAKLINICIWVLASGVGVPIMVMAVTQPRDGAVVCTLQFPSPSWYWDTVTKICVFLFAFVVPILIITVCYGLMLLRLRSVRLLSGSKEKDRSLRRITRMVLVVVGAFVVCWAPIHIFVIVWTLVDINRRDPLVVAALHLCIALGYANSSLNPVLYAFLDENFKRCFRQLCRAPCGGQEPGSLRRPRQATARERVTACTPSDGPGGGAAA
T3 sequence (P32300 whole entry): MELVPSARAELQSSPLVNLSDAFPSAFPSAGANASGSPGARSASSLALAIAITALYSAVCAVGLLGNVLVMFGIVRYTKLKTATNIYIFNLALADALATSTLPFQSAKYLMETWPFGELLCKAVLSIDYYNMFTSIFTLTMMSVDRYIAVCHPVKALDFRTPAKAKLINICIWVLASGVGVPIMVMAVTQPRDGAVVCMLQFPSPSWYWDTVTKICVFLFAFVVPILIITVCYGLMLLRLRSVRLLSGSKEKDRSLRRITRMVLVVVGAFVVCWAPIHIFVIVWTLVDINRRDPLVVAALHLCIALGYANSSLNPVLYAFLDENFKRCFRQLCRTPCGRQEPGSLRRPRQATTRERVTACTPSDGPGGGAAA
T4 sequence (P97266 whole entry, looked up): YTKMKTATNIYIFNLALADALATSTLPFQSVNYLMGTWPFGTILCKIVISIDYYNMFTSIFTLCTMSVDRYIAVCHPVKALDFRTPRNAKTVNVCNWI

Compound: C=CCNC(Cc1c(C)cc(O)cc1C)C(=O)NCCCCCCNC(=O)C(Cc1c(C)cc(O)cc1C)NCC=C (centres unmarked) [Compound 33, Bis-[(N-allyl)Dmt-NH]hexyl]
- Ki (δ-opioid receptor [1]): 77.8 ± 14 nM
- Ki(δ)/Ki(μ) (μ-opioid receptor [2]; selectivity ratio): 11
- Ki (μ-opioid receptor [2]; versus [3H]DAMGO, rat brain synaptosomes, read-out: Ki(μ)): 6.94 ± 1.4 nM
- IC50 (δ-opioid receptor [3]; agonism, read-out: MVD): > 10000 nM
- MVD pA2 (δ-opioid receptor [3]; δ antagonism): 6.83
- IC50 (μ-opioid receptor [4]; agonism, read-out: GPI): > 10000 nM
- pA2(μ)/pA2(δ) (μ-opioid receptor [4]; selectivity of antagonism): 2.5
- GPI pA2 (μ-opioid receptor [4]; μ antagonism): 7.23
- inhibition of morphine-induced analgesia [5]: inhibit morphine-induced analgesia

Compound: Cc1cc(O)cc(C)c1CC(N)C(=O)NCCCc1cnc(CCCNC(=O)C(N)Cc2c(C)cc(O)cc2C)c(=O)[nH]1 (centres unmarked) [Compound 37, 3,6-Bis-[Dmt-NH-propyl]pyrazinone]
- Ki (δ-opioid receptor [6]): 13.2 nM
- Ki (μ-opioid receptor [7]): 0.042 nM
- Ki(δ)/Ki(μ) (μ-opioid receptor [7]): 307

Compound: Cc1cc(O)cc(C)c1CC(N)C(=O)N1Cc2ccccc2CC1C(=O)NCCCCCCNC(=O)C1Cc2ccccc2CN1C(=O)C(N)Cc1c(C)cc(O)cc1C (stereo not drawn) (as salt: HCl) [Compound 19, 1,6-Bis(Dmt-Tic-amino)hexane]
- melting point: 215 to 217 °C

Compound: Oc1ccc2c3c1O[C@H]1c4[nH]c5ccccc5c4C[C@@]4(O)[C@@H](C2)N(CC2CC2)CC[C@]314 [Naltrindole]
- MVD Antagonist pA2 (δ-opioid receptor [8]): 9.2
- MVD Antagonist pA2 (nM), value in parentheses (Ke) (δ-opioid receptor [8]): 0.631 nM
- GPI Antagonist pA2 (μ-opioid receptor [9]): 7.3
- GPI Antagonist pA2 (nM), value in parentheses (Ke) (μ-opioid receptor [9]): 50 nM

Compound: Cc1cc(O)cc(C)c1C[C@H](N)C(=O)NCCCCCCNC(=O)[C@@H](N)Cc1c(C)cc(O)cc1C [H-Dmt[NH—(CH2)6—NH]Dmt-H]
- Ki(δ)/Ki(μ) (μ-opioid receptor [7]): 870

Compound: Cc1cc(O)cc(C)c1CC(N)C(=O)N1Cc2ccccc2CC1C(=O)NCCCCCCCCCCNC(=O)C1Cc2ccccc2CN1C(=O)C(N)Cc1c(C)cc(O)cc1C (centres unmarked) (as salt: HCl) [Compound 20, 1,10-Bis(Drat-Tic-amino)decane]
- melting point: 205 to 207 °C

Compound: H-Dmt-Pro-Phe-Phe-NH2 [[Dmt^1]EM-2]
- Ki (δ-opioid receptor [6]): 28.2 nM
- Ki (μ-opioid receptor [7]): 0.15 nM
- Ki(δ)/Ki(μ) (μ-opioid receptor [7]): 188

Compound: Cc1cc(O)cc(C)c1CC(C(=O)N1Cc2ccccc2CC1C(=O)NCCCCCCNC(=O)C1Cc2ccccc2CN1C(=O)C(Cc1c(C)cc(O)cc1C)N(C)C)N(C)C (stereo not drawn) (as salt: HCl) [Compound 21, 1,6-Bis(N,N-Dimethyl-Dmt-Tic-NH)-hexane]
- melting point: 195 to 197 °C
